pEC50: −log10 of the molar value. Read-outs that look alike come from different tables or passages of the source.

Data on one molecule can be found in publication PMC7710685 (Frontiers in Neuroscience, 2020).

The target in assay [1] is T1, human α1β2γ1 GABAA receptors (Homo sapiens, UniProt P14867+P47870+Q8N1C3).
T1 sequence (Q8N1C3 36-465): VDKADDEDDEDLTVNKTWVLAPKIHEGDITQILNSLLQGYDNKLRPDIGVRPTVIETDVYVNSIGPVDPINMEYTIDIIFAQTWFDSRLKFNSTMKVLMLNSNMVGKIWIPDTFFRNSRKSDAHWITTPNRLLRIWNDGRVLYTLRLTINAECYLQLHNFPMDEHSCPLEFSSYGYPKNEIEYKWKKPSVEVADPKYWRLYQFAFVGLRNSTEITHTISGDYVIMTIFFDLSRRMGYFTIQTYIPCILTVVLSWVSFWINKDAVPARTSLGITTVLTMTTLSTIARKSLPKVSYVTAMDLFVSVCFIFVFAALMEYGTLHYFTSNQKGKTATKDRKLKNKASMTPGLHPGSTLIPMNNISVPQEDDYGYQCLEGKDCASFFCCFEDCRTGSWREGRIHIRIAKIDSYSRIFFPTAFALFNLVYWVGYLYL
T1 sequence (P47870 25-512 limits assumed): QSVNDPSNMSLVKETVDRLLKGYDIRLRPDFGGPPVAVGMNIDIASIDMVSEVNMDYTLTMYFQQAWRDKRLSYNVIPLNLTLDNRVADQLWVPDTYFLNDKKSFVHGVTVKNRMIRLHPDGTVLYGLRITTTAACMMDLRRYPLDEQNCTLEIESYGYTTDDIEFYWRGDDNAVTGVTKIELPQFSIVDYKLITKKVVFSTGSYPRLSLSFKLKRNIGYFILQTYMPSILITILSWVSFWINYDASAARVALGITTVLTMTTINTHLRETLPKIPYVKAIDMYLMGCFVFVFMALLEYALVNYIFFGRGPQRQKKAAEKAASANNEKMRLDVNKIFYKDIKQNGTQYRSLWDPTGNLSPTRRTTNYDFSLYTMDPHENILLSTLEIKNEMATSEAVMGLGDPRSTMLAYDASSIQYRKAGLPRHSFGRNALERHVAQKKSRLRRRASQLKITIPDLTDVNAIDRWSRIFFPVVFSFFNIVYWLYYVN
T1 sequence (P14867 28-456): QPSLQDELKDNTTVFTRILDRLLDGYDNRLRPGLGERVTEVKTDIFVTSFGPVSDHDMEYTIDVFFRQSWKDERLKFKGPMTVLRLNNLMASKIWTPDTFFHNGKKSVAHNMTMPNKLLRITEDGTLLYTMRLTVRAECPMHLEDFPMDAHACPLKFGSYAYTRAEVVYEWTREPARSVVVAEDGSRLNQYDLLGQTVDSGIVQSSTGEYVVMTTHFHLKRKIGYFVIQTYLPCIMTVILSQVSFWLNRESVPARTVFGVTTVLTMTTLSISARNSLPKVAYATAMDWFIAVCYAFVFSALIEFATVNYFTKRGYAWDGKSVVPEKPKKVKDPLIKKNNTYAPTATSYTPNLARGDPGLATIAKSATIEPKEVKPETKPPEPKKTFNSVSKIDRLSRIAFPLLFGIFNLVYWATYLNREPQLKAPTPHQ
The note with it: γ1 (α1β2γ1); for Modulation at 10 μM: 10 μM co-applied with GABA EC10, percentage potentiation of GABA EC10.
Text: (§1) To ensure homogenous receptor populations and subunit orientation, we used concatenated receptors expressed in X. laevis oocytes. Concatenated pentameric constructs were created using the subunits γx-β2-α1-β2-α1 (where x = 1, 2, or 3). […] Briefly, natural restriction sites BamHI, HindIII, and KpnI restriction sites in the γ1, 2, 3, β2, or α1 subunits were removed through silent mutations using site-directed mutagenesis. […] Inserted linker lengths are as follows γx-13a-β2-27a-α1-18a-β2-27a-α1.
(§2) The collection and preparation of oocytes were done as previously described ([Ahring et al., 2016]). […] Oocytes were prepared by slicing lobes into small pieces and defolliculated through collagenase A treatment. Stage V and VI oocytes were injected with around 50 nL of 0.5 ng/nL RNA for each concatenated construct or α1/β2 subunits in a 1:1 ratio and incubated for 3–4 days at 18°C in modified Barth’s solution (96 mM NaCl, 2.0 mM KCl, 1 mM MgCl2, 1.8 mM CaCl2, 5 mM HEPES, 2.5 mM sodium pyruvate, 0.5 mM theophylline, and 100 μg/mL gentamicin; pH 7.4).
(§3) This technique was performed as previously described ([Ahring et al., 2016], [2018]; [Liao et al., 2019]). Briefly, oocytes sit in a custom-built chamber and continuously perfused with a saline solution, ‘ND96’ (96 mM NaCl, 2 mM KCl, 1 mM MgCl2, 1.8 mM CaCl2, and 10 mM HEPES; pH 7.4). Glass electrode pipettes were filled with 3 M KCl, with resistances ranging from 0.4 to 2 MΩ. Oocytes were clamped to −60 mV using an Axon GeneClamp 500B amplifier (Molecular Devices). Currents were filtered at 20 Hz with a four-pole low pass Bessel filter (Axon GeneClamp 500 B) and digitized by a Digidata 1440A (Molecular Devices). Sampling was taken at 200 Hz and analyzed using pClamp 10.2 suite (Molecular Devices).
(§4) Each recording day, a fresh stock was used to prepare dilutions. The maximal concentration of DMSO in final drug ND96 solutions was <0.1%.
(§5) The drug modulation experiments were done as follows.
(§6) The final dataset was from a minimum of four experiments and a minimum of two different X. laevis donors. Raw traces were analyzed using pClamp 10.2. Episodic traces for each application were overlaid and the baseline was subtracted. Peak current amplitude was quantified by measuring maximum inward current for each response. Peak current amplitudes (I) were fitted to the Hill equation and normalized to the maximal fitted response (Imax). […] The Emax response and EC50 values were calculated by using non-linear regression to fit the data to the Hill equation in a monophasic model with three variables (top, bottom, EC50) using GraphPad Prism 8. Efficacy at infinitely low compound concentration was set to 0, and the slope was constrained to 1. Means are reported ± one SD.

The target in assay [2] is T2, human α1β2γ2 GABAA receptors (Homo sapiens, UniProt P14867+P18507+P47870). The conditions noted are these: γ2 (α1β2γ2).
T2 sequence (P18507 40-475, one chain of several): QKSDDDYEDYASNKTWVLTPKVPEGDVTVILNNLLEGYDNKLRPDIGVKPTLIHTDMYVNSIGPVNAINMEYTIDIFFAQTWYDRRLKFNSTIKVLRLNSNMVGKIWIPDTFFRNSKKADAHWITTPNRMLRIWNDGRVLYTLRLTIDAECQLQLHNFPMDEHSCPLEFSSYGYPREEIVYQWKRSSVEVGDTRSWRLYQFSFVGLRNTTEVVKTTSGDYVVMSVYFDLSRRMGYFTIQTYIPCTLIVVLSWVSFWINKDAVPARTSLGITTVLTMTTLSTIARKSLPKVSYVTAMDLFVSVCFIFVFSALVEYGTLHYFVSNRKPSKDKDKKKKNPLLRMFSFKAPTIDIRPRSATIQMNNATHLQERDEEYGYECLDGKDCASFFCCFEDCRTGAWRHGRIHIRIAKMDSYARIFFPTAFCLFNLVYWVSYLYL
Text: as §1, §2, §3, §4, §5, §6
In assay [3] the target is T3, human α1β2γ3 GABAA receptors (Homo sapiens, UniProt P14867+P47870+Q99928).
T3 sequence (Q99928 18-467): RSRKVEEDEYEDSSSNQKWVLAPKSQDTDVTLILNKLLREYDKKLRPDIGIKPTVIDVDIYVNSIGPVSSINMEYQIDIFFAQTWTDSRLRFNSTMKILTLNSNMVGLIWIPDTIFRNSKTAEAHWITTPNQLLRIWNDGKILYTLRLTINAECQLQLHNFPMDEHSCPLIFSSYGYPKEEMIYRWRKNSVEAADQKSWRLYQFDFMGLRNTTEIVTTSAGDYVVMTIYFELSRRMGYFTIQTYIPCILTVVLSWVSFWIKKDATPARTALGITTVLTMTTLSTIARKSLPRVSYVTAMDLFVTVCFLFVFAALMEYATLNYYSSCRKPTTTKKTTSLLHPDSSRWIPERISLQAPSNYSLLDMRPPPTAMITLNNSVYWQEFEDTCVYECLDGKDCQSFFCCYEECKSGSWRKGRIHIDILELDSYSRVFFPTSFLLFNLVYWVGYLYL
T3 sequence (P47870 25-512 limits assumed): T1 sequence (P47870 25-512 limits assumed)
T3 sequence (P14867 28-456): T1 sequence (P14867 28-456)
The conditions noted are these: γ3 (α1β2γ3).
Text: as §1, §2, §3, §4, §5, §6

A further assay has as its system γ3 GABAA receptors. The conditions noted are these: competition with flunitrazepam or Ro-154513; ref Herb et al., 1992; Lüddens et al., 1994; Tögel et al.; Hadingham et al., 1995; Sieghart; Dämgen and Lüddens, 1999; cited from earlier work.
For assay [4], the target named is α1βγ1 receptors. The note with it: HEK293 cells expressing α1βγ1, cited from earlier work.
The test system of assay [5] is α1βγ1 receptors. Also noted: method as in Khom et al., 2006. The conditions noted are these: α1βγ1 in X. laevis oocytes, ref Khom et al., 2006, cited from earlier work.
In another assay the test system is α2βγ1 receptors. Set-up: method as in Wafford et al., 1993; Mckernan et al., 1995. The note with it: α2βγ1 in X. laevis oocytes, ref Wafford et al., 1993, Mckernan et al., 1995, cited from earlier work.
The test system of another assay is γ1-containing receptors. Also noted: method as in Benke et al., 1996. The conditions noted are these: ref Benke et al., 1996; cited from earlier work.
For assay [6], the target named is T2, human α1β2γ2 GABAA receptors. Briefly: cell-based. The note with it: γ2 (α1β2γ2); percent of current through GABA EC10; Hill fit.
Text: as §1, §2, §3, §4, §5, §6
Setting [7] is: 10 μM co-applied with GABA EC10, percentage potentiation of GABA EC10.
The mark [8] stands for this setting: percent of current through GABA EC10, Hill fit.

On to `Cc1ccc(-c2nc3ccc(C)cn3c2CC(=O)N(C)C)cc1` [Zolpidem, zolpidem], for which the “Modulation at 10 μM” value amounted to 15 ± 6% in assay [1], 15% in assay [1] (listed as zolpidem), 484 ± 124% in [2] (setting [7]) and 101 ± 37% in assay [3] (setting [7]). The “Emax (%)” value in [1] (percent of current through GABA EC10, Hill fit, 0.1 nM-10 μM) was “No fit”; in assay [2] (setting [8]), 487 ± 66%; in [3] (setting [8]), “No fit”. In the assay with γ3 GABAA receptors, the “binding to the classical γ3 receptor benzodiazepine site” value is “no binding”. Besides, the negative-log EC50 (pEC50) (as a rule, the negative decadic logarithm of the EC50, by convention in mol/L) on α1βγ1 receptors [4] (ref Esmaeili et al., 2009) is about 6.70. Also, the potentiation in the assay with α1βγ1 receptors [4] (ref Puia et al., 1991) is 50–75%. In addition, the maximum efficacy in the assay with α1βγ1 receptors [5] is at most 20%; in the assay on α1βγ1 receptors [5] (listed as zolpidem) it was “below 20%”; with α2βγ1 receptors it was at most 20%; in the assay on α2βγ1 receptors (listed as zolpidem), “below 20%”. In addition, the binding entry in the assay on γ1-containing receptors is “no binding”. Also, the Emax (usually the size of the effect at its maximum, as opposed to the concentration needed) in assay [6] lay within 475 to 550%.
